Half-life, bioavailability and water-dispersing ability data for one compound are collected here from patent US11617718B2, “Process for producing a nano-CBD microemulsion system” (priority 2019, dated 2023).

Read-outs that look alike come from different tables or passages of the source.

The conditions of data set [1]: cited from earlier work.
Data set [2] can be described thus: Water solubility / water-dispersing ability. In kind it is physicochemical. The following applies: FIG. 1, dispersed in water. On the procedure:
Producing a carrier: 70 ml of PEG was heated to 70° C. 70 ml of the carrier was added to the above-prepared dispersal phase, this dispersal phase continued to be heating to 100° C. and stirred at a speed of 600 rpm.

With `C=C(C)[C@@H]1CCC(C)=C[C@H]1c1c(O)cc(CCCCC)cc1O` [CBD, Cannabidiol], in data set [1] (in vivo), the half-life entry is given as “about 9 hours”. The bioavailability entry in data set [1] (used nasally (inhalantly)) is “about 31%”; in data set [1] (used orally), 13-19%. In data set [2], the water-dispersing ability entry is on record as “insoluble in water”.
